Laboratory results taken from PMC11788822, “Uncovering the potent antimicrobial activity of squaramide based anionophores – chloride transport and membrane disruption” (Chemical Science, 2025).

Assays:
S. aureus cells [1] = assay: MQAE chloride influx assay; type: cell-based, Staphylococcus aureus; details: 5 min, MQAE fluorescence fitted to Stern–Volmer equation
Procedure: To study this, we utilised N-(ethoxycarbonylmethyl)-6-methoxyquinolinium bromide (MQAE) as a fluorescent reporter for cellular Cl^− levels. MQAE fluorescence is highly sensitive to Cl^− flux, where increased cytosolic Cl^− concentration gives rise to a collisional quenching effect. […] To do this, cells were pre-treated with MQAE and then exposed to varying concentrations of 1, 2 and 4, whereafter MQAE fluorescence was read at T = 5 min, and plotted relative to control (Fig. 3).
Furthermore, using the fluorescence data acquired from these assays, and fitting to the Stern–Volmer equation, we could approximate the increased concentration of Cl^− with respect to basal fluorescence for each of the concentrations studied (Table 3). […]
MQAE chloride influx assay
From an overnight culture brought to stationary phase (OD600 = ~1.0) was taken samples, brought to an OD600 = 0.2, which were treated with N-Ethoxycarbonylmethyl-6-methoxyquinolium Bromide (MQAE) (10 mM) for 1 h at 37 0C. Subsequently, cells were washed with & resuspended in PBS. 2 mL of samples were taken & transferred to a fluorescence cuvette, whereupon fluorescence was read (λexc = 350 nm (slit width = 5 nm) λem = 460 nm (slit width = 5 nm)) using a Cary Eclipse Fluorescence Spectrophotometer (Agilent Technologies). Subsequently samples were treated with the Compound of interest for 5 mins whereafter fluorescence was measured as previous, with intensity plotted relative to control, […]
or measured over the course of 2 hrs, starting at T0 (upon addition of compound).
Alternatively, 200 µL aliquots of cell suspension were added to a 96-well plate, to the desired quantity, and were either untreated (control), or treated with the compound of interest for 5 mins, whereafter fluorescence was read using a BMG Labtech Clariostar Plus platereader, and plotted relative to control. […]
Subsequently, cells were resuspended in 1 mL PBS, and treated with a the respective fluorophore or compound of interest at the specified concentration or […]

[2] = set-up: method as in doi:10.1021/jo01097a026; details: for the relevant substitution pattern; cited from earlier work
S. aureus cells [3] = assay: Propidium iodide membrane integrity assay; type: cell-based, Staphylococcus aureus; details: for propidium iodide fluorescence vs basal (emission around 615 nm): two hours of treatment, various concentrations
Excerpt: To study whether compounds 1, 2, and 4 do indeed accumulate in the membrane, and yield a depolarising effect, or compromise its integrity we utilised propidium iodide (PI), a red-emissive (λmax(em) = 617 nm) cell-impermeable fluorophore. PI undergoes a fluorescence increase upon internalisation and DNA intercalation, and thus under ordinary circumstances PI fluorescence is quenched, but if membrane integrity is compromised, a fluorescence “turn-on” occurs. After two hours of treatment with 1, 2, and 4, PI fluorescence was compared to basal fluorescence from the fluorophore. […] This clear membrane depolarising effect was less obvious for 4, and follows the trend of the observed transport, and toxicity results. However, it is of note that each compound can effectively promote an influx of PI through membrane depolarisation.
To further investigate the rate of this phenomenon, PI fluorescence was monitored as a function of time, upon treatment of S. aureus with 1 at a concentration of 50 μM (Fig. 4B).
1 mL aliquots of S. aureus cultures brought to early stationary phase overnight were brought to an OD600 = 0.2 and 100 µL of this suspension was added to 96 well plates, whereafter 100 µL of PBS containing; no compound (- control), or compound (2x desired concentration) was added to the suspension. The resultant mixture was incubated at 37 °C for 2 hr whereafter fluorescence intensity from PI (DNA bound form) was quanitified (λ exc/em = 535/615 nm) using a Clariostar plate reader. In the case of time course experiments, Measurement cycles were set for two hours, following addition of the respective compound (T0). Fluorescence was subsequently plotted as F/F0. […]
Statistical analysis of biological data: All biological experiments were carried out in triplicate, making use of cells of differing origins, on three independent occasions. With experiments concerning the use of 96-well plates, all experiments were carried out as three biological replicates of eight technical replicates. All data is presented as the mean + SEM of each replicate, unless specified otherwise. All statistical analysis and significance determination was carried out using the Graphpad Prism 8.0.1 software package.

S. aureus = assay: DNA release luminescence assay with Ru(phen)2(dppz)Cl2; type: cell-based, Staphylococcus aureus; details: 100 μM, 1 h, vs untreated control
Procedure: In addition to assays monitoring the uptake of PI, luminescence assays to monitor the release of cellular components such as DNA/RNA were also undertaken. Using Ru(phen)2(dppz)Cl2, which acts as a highly sensitive, “off-to-on” emissive probe for nucleic acids (NA),[49–51] we assessed the levels of NA release from cells upon treatment with 1, 2, and 4 (100 μM) by comparing emission intensity of the complex in the absence of nucleic acids, to untreated controls, and treated samples (Fig. 4C). When Ru(phen)2(dppz)Cl2 was added to sterile nutrient broth, which lacks nucleic acids, emission from the ^3MLCT band (ca. 620 nm) is highly quenched, however, when added to culture supernatant in the absence of treatment with 1, 2, or 4 we see a large increase in ^3MLCT derived luminescence indicating the presence of nucleic acids in the solution. This initial luminescence increase is unsurprising, as S. aureus is known to release DNA under active growth conditions, in the form of eDNA,[52] which acts as a chemical messenger for microbial species.[53] […] This additional increase in luminescence indicates a heightened level of extracellular NA and may be another indication of membrane disruption. […] Indeed, a significant increase in luminescence would not be expected, as the release of large architectures such as those observed for nucleic acids is slow, due to the bulk of the biomolecules.
1 mL aliquots of S. aureus cultures brought to early stationary phase overnight were brought to an OD600 = 0.2 and 100 µL of this suspension was added to 96 well plates, whereafter 100 µL of PBS containing; no compound (- control), or compound (2x desired concentration) was added to the suspension. The resultant mixture was incubated at 37 °C for 2 hr whereafter fluorescence intensity from PI (DNA bound form) was quanitified (λ exc/em = 535/615 nm) using a Clariostar plate reader. In the case of time course experiments, Measurement cycles were set for two hours, following addition of the respective compound (T0). Fluorescence was subsequently plotted as F/F0.
DNA release luminescence assay […]

Row | Structure (SMILES) | Increase in chloride concentration from basal level [Clθ] (mM) (S. aureus cells [1]; 10 μM compound) | Increase in chloride concentration from basal level [Clθ] (mM) (S. aureus cells [1]; 50 μM compound) | Increase in chloride concentration from basal level [Clθ] (mM) (S. aureus cells [1]; 100 μM compound) | Increase in chloride concentration from basal level [Clθ] (mM) (S. aureus cells [1]; 200 μM compound) | Hammett parameter (σ) [2] | propidium iodide fluorescence as a function of time (S. aureus cells [3]; 50 μM, over two hours) | propidium iodide fluorescence vs basal (emission around 615 nm) (S. aureus cells [3]) | Ru(phen)2(dppz)Cl2 luminescence in culture supernatant (nucleic acid release) (S. aureus)
1 | O=c1c(Nc2cc(C(F)(F)F)cc(C(F)(F)F)c2)c(NC23CC4CC(CC(C4)C2)C3)c1=O [Compound 1] | +0.31 (±0.02) mM | +1.44 (±0.16) mM | +4.22 (±2.01) mM | +13.31 (±3.05) mM | 0.86 | increase in the fluorescence of PI | greatly increased | further increased
2 | O=c1c(Nc2ccc(Cl)c(Cl)c2)c(NC23CC4CC(CC(C4)C2)C3)c1=O [Compound 2] | +0.21 (±0.02) mM | +1.53 (±0.07) mM | +2.91 (±0.02) mM | +5.49 (±0.01) mM | 0.6 | – | greatly increased | further increased
3 | O=c1c(Nc2ccc([N+](=O)[O-])cc2)c(NC23CC4CC(CC(C4)C2)C3)c1=O [Compound 4] | +0.61 (±0.07) mM | +1.74 (±0.02) mM | +3.57 (±0.18) mM | +10.19 (±0.08) mM | 0.78 | – | less obvious | further increased
